Patent publication US20240277693A1, “A PHARMACEUTICAL PRODUCT CONTAINING TASQUINIMOD AND A METHOD FOR ASSESSING THE PURITY OF SAID PRODUCT” (ACTIVE BIOTECH AB, priority 2021, published 2024)

What was measured:
Assay type in all cases: physicochemical
[1] = Assessment of capsules after manufacture: amount of tasquinimod and of decomposition products; details: 0 months (after manufacturing)
Source text: (§1) In some embodiments, the method disclosed herein comprises storing (keeping) a sample of the pharmaceutical product for a period of time, preferably under selected conditions of temperature and humidity. The amount (or concentration) of tasquinimod and of at least one of compounds I, II, III and IV in the sample may preferably be determined at the beginning or before the storage period and at the end of the storage period. The selected storage conditions may include a temperature in the range of, for example, 20° C. to 40° C., and a relative humidity in the surrounding atmosphere in the range of, for example, 30% to 75%; e.g. 25° C. and 60% RH, or 30° C. and 65% RH, or 35° C. and 70% RH, or 40° C. and 75% RH. The storage period may extend over a time period in the range of, for example, several weeks to several years. For example, the stability testing period (“storage period”) may be 2 weeks, 3 weeks, 1 month, 2 months, 3 months, 4 months, 5 months, 6 months, 9 months, 1 year, 18 months, 2 years, 3 years, 4 years or even 5 years or longer. A shorter storage period may be selected by use of higher storage temperature and/or higher relative humidity (RH). The total amount of a tasquinimod decomposition product in the sample at the end of the storage period may be determined by, for example, HPLC.
The obtained batch of capsules was assessed by determining the amount of tasquinimod and the amount of compound III in a sample of the capsules. The selected criterion for approving the batch was that the capsules of the sample contain not more than 1.0% w/w of compound III relative to the amount of tasquinimod. […] Therefore, according to the selected criterion for approval, the batch of capsules was determined to be suitable for distribution.
The obtained batch of capsules was assessed by determining the amount of tasquinimod and the amount of compounds I, II, III and IV in a sample of the capsules. The selected criterion for approving the batch was that the capsules of the sample contain not more than in total 5% w/w of compounds I-IV relative to the amount of tasquinimod. […] Therefore, according to the selected criterion for approval, the batch of capsules was determined to be suitable for distribution.
(§2) The obtained batch of capsules was subjected to multiple assessments, viz. a first assessment comprising determining the amount of tasquinimod and the amount of compounds I, II, III and IV in a sample of the capsules directly after manufacturing, whereby the selected criterion for approving the batch for distribution was that the capsules of the sample, in a water impermeable blister pack, contain not more than in total 5% w/w of compounds I-IV relative to the amount of tasquinimod, followed by eight further, independent assessments, by determining the amount of tasquinimod and the amount of each one of compounds I, II, III and IV in a sample of the capsules at the end of a period of stability testing (by keeping the capsules, in a water impermeable blister pack, at 25° C./60% RH) of 3, 6, 9, 12, 18, 24, 36 and 48 months, respectively, whereby each time the criterion for approving the batch was that the capsules of the sample, at the end of each period of stability testing, contain a total amount of compounds I-IV of not more than 5.0% w/w, relative to the amount of tasquinimod in the capsules.

[2] = Stability testing of capsules at 25° C./60% RH in water impermeable blister pack
Source text: as §1
The batch of capsules manufactured in Example 19 was assessed by determining the amount of tasquinimod and the amount of each one of compounds I, II, III and IV in a sample of the capsules at the end of a 3-month stability testing, whereby the criterion for approving the batch was that the capsules of the sample, at the end of the 3-month stability testing, contain a total amount of compounds I-IV of not more than 5.0% w/w, relative to the amount of tasquinimod in the capsules. The stability testing consisted of keeping the capsules, in a water impermeable blister pack, at 25° C./60% RH. At the end of the stability testing, the capsules contained 0.06% w/w of compound I, less than 0.05% w/w of compound II, 0.10% of compound III and less than 0.05% w/w of compound IV, relative to the amount of tasquinimod (determined to be 0.246 mg/capsule), viz. in total less than 0.26% w/w of compounds I-IV relative to the amount of tasquinimod. Therefore, according to the selected criterion for approval, the batch of capsules was determined to be suitable for distribution.
as §2

[3] = Drug product stability studies (general observations)
Source text: In a drug product, compound I is formed with compound II from hydrolysis of tasquinimod. […] Compound II is further decarboxylated to form compound III.
Compound III is the decarboxylated species formed from the degradation of compound II.
The mechanism for formation of compound IV in a drug product is unknown.

[4] = 0.25 mg capsules of Example 19, 18 months
[5] = 0.25 mg capsules of Example 19, 24 months
[6] = 0.25 mg capsules of Example 19, 36 months
[7] = 0.25 mg capsules of Example 19, 48 months
[8] = 0.5 mg capsules of Example 28, 3 months
[9] = 0.5 mg capsules of Example 28, 6 months
[10] = 0.5 mg capsules of Example 28, 9 months
[11] = 0.5 mg capsules of Example 28, 12 months
[12] = 0.5 mg capsules of Example 28, 18 months
[13] = 0.5 mg capsules of Example 28, 24 months
[14] = 0.5 mg capsules of Example 28, 36 months
[15] = 0.5 mg capsules of Example 28, 48 months
[16] = 1.0 mg capsules of Example 29, 3 months
[17] = 1.0 mg capsules of Example 29, 6 months
[18] = 1.0 mg capsules of Example 29, 9 months
[19] = 1.0 mg capsules of Example 29, 12 months
[20] = 1.0 mg capsules of Example 29, 18 months
[21] = 1.0 mg capsules of Example 29, 24 months
[22] = 1.0 mg capsules of Example 29, 36 months
[23] = 1.0 mg capsules of Example 29, 48 months

SMILES | Decomposition products (% w/w), relative to the amount of tasquinimod in capsule ([1]; 0.5 mg capsules of Example 28) [% w/w] | Decomposition products (% w/w), relative to the amount of tasquinimod in capsule ([1]; 1.0 mg capsules of Example 29) [% w/w] | amount of decomposition product (each of compounds I-IV) in capsules, relative to the amount of tasquinimod [2, 4] [% w/w] | amount of decomposition product (each of compounds I-IV) in capsules, relative to the amount of tasquinimod [2, 5] [% w/w] | amount of decomposition product (each of compounds I-IV) in capsules, relative to the amount of tasquinimod [2, 6] [% w/w] | amount of decomposition product (each of compounds I-IV) in capsules, relative to the amount of tasquinimod [2, 7] [% w/w] | Decomposition products (% w/w), relative to the amount of tasquinimod in capsule [2, 8] [% w/w] | Decomposition products (% w/w), relative to the amount of tasquinimod in capsule [2, 9] [% w/w] | Decomposition products (% w/w), relative to the amount of tasquinimod in capsule [2, 10] [% w/w] | Decomposition products (% w/w), relative to the amount of tasquinimod in capsule [2, 11] [% w/w] | Decomposition products (% w/w), relative to the amount of tasquinimod in capsule [2, 12] [% w/w] | Decomposition products (% w/w), relative to the amount of tasquinimod in capsule [2, 13] [% w/w] | Decomposition products (% w/w), relative to the amount of tasquinimod in capsule [2, 14] [% w/w] | Decomposition products (% w/w), relative to the amount of tasquinimod in capsule [2, 15] [% w/w] | Decomposition products (% w/w), relative to the amount of tasquinimod in capsule [2, 16] [% w/w] | Decomposition products (% w/w), relative to the amount of tasquinimod in capsule [2, 17] [% w/w] | Decomposition products (% w/w), relative to the amount of tasquinimod in capsule [2, 18] [% w/w] | Decomposition products (% w/w), relative to the amount of tasquinimod in capsule [2, 19] [% w/w] | Decomposition products (% w/w), relative to the amount of tasquinimod in capsule [2, 20] [% w/w] | Decomposition products (% w/w), relative to the amount of tasquinimod in capsule [2, 21] [% w/w] | other results
COc1cccc2c1c(O)c(C(=O)O)c(=O)n2C [Compound II, 4-hydroxy-5-methoxy-1-methyl-2-oxo-1,2-dihydroquinoline-3-carboxylic acid] | <0.05 | <0.05 | 0.05 | 0.05 | 0.06 | 0.06 | <0.05 | <0.05 | <0.05 | <0.05 | <0.05 | <0.05 | <0.05 | <0.05 | <0.05 | <0.05 | 0.06 | 0.06 | 0.06 | 0.06 | Decomposition products (% w/w), relative to the amount of tasquinimod in capsule [2, 22]: 0.07 % w/w; Decomposition products (% w/w), relative to the amount of tasquinimod in capsule [2, 23]: 0.08 % w/w; change of the amount of the compound in tasquinimod drug product on storage [3]: slight increase
CNc1ccc(C(F)(F)F)cc1 [Compound I, N-methyl-4-(trifluoromethyl)aniline] | <0.05 | <0.05 | 0.10 | 0.13 | 0.16 | 0.16 | <0.05 | 0.05 | 0.06 | 0.07 | 0.06 | 0.07 | 0.07 | 0.08 | <0.05 | <0.05 | <0.05 | <0.05 | <0.05 | <0.05 | amount of decomposition product (each of compounds I-IV) in capsules, relative to the amount of tasquinimod ([2]; 0.25 mg capsules of Example 19, 3 months): 0.06 % w/w; amount of decomposition product (each of compounds I-IV) in capsules, relative to the amount of tasquinimod ([2]; 0.25 mg capsules of Example 19, 6 months): 0.08 % w/w; amount of decomposition product (each of compounds I-IV) in capsules, relative to the amount of tasquinimod ([2]; 0.25 mg capsules of Example 19, 9 months): 0.12 % w/w; amount of decomposition product (each of compounds I-IV) in capsules, relative to the amount of tasquinimod ([2]; 0.25 mg capsules of Example 19, 12 months): 0.11 % w/w; Decomposition products (% w/w), relative to the amount of tasquinimod in capsule [2, 22]: <0.05 % w/w; Decomposition products (% w/w), relative to the amount of tasquinimod in capsule [2, 23]: <0.05 % w/w; change of the amount of the compound in tasquinimod drug product on storage [3]: increase under any storage conditions
COc1cccc2c1c(O)c(Cc1c(O)c3c(OC)cccc3n(C)c1=O)c(=O)n2C [Compound IV, 3,3′-methylenebis(4-hydroxy-5-methoxy-1-methylquinolin-2(1H)-one)] | <0.05 | <0.05 | 0.07 | 0.10 | 0.15 | 0.19 | <0.05 | <0.05 | <0.05 | <0.05 | <0.05 | 0.06 | 0.09 | 0.11 | <0.05 | <0.05 | <0.05 | <0.05 | <0.05 | <0.05 | Decomposition products (% w/w), relative to the amount of tasquinimod in capsule [2, 22]: <0.05 % w/w; Decomposition products (% w/w), relative to the amount of tasquinimod in capsule [2, 23]: <0.05 % w/w; change of the amount of the compound in tasquinimod drug product on storage [3]: increase under accelerated conditions
